Measured values: US20150011466A1, “APJ Receptor Compounds” (priority 2012, published 2015)
Like-named read-outs stand apart in the source and are kept apart here. Where a SMILES comes first, the peptide text is derived from it. [ ]: non-standard residue; d: D form. The star is where a group is joined. Palmitoyl = CCCCCCCCCCCCCCCC(=O)*

How the values were obtained:
APJ receptor = biological target: T1, APJ receptor (Homo sapiens, UniProt P35414); experiment: HTRF cAMP assay, inhibition of NKH477 stimulated cAMP in Human TRex cells expressing APJ upon doxycycline induction (APJ-hTREX); type: cell-based; conditions: for percent intrinsic activity at 0.3 µM: read-out: % IA (@ 300 nM); for Ranking: class combining EC50 and % histamine
T1 construct: expressed in transfected cells; host or cells: Human TRex cells (doxycycline-inducible)
T1 sequence (P35414 1-380): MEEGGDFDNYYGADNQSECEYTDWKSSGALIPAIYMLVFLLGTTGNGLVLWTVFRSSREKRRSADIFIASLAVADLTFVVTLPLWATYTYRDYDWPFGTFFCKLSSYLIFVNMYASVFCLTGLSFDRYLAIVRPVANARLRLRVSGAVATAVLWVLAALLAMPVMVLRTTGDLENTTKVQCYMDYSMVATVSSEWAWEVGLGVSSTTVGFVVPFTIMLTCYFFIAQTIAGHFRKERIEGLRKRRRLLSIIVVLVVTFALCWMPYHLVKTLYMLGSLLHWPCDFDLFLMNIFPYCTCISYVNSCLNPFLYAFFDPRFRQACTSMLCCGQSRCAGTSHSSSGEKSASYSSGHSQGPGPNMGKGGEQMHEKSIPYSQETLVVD
How it was run: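 Cells stimulated with NKH477 and cAMP measured by HTRF competitive immunoassay (cryptate anti-cAMP antibody, d2-labeled cAMP). APJ-hTREX cells induced with […] doxycycline and seeded overnight at 40 k/well.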

| Compound | Histimine (% vs. 48/40) (Histimine (% vs. 48/40)) | percent intrinsic activity at 0.3 µM (APJ receptor) | EC50 (APJ receptor) | Ranking (APJ receptor) | EC50 (APJ receptor; inhibition of NKH477 stimulated cAMP, APJ-hTREX cells, read-out: APJ-hTREX EC50) |
| --- | --- | --- | --- | --- | --- |
| CCCCCCCCCCCCCCCC(=O)N[C@H](C(=O)N[C@H](C(=O)N[C@@H](Cc1ccccc1)C(=O)N[C@@H](CCCNC(=N)N)C(=O)N[C@@H](CO)C(=O)N[C@@H](CO)C(=O)N[C@@H](CCC(=O)O)C(=O)N[C@H](CCCCN)C(=O)N[C@@H](CCCNC(=N)N)C(=O)N[C@@H](CCCNC(=N)N)C(=O)N[C@@H](CO)C(=O)N[C@@H](C)C(=O)N[C@@H](CC(=O)O)C(=O)N[C@H](C(=O)N[C@@H](CCC(N)=O)C(=O)N[C@H](C(N)=O)[C@@H](C)CC)[C@@H](C)CC)C(C)C)[C@@H](C)O [Compound 31] (Palmitoyl-TVFRSSE[dK]RRSADIQI-NH2) | 68% | 67% | – | – | – |
| CCCCCCCCCCCCCCCC(=O)N[C@H](C(=O)N[C@H](C(=O)N[C@@H](Cc1ccccc1)C(=O)N[C@@H](CCCNC(=N)N)C(=O)N[C@@H](CO)C(=O)N[C@@H](CO)C(=O)N[C@@H](CCC(=O)O)C(=O)N[C@H](CCCCN)C(=O)N[C@@H](CCCNC(=N)N)C(=O)N[C@@H](CCCNC(=N)N)C(=O)N[C@@H](CO)C(=O)N[C@@H](C)C(=O)N[C@@H](CC(=O)O)C(=O)N[C@H](C(=O)N[C@@H](Cc1ccccc1)C(=O)N[C@@H](CCC(N)=O)C(N)=O)[C@@H](C)CC)C(C)C)[C@@H](C)O [Compound 32] (Palmitoyl-TVFRSSE[dK]RRSADIFQ-NH2) | 69% | 55% | – | – | – |
| CCCCCCCCCCCCCCCC(=O)N[C@@H](CC(=O)O)C(=O)N[C@H](C(=O)N[C@@H](Cc1ccccc1)C(=O)N[C@@H](CCCNC(=N)N)C(=O)N[C@@H](CO)C(=O)N[C@@H](CO)C(=O)N[C@@H](CCC(=O)O)C(=O)N[C@H](CCCCN)C(=O)N[C@@H](CCCNC(=N)N)C(=O)N[C@@H](CCCNC(=N)N)C(=O)N[C@@H](CO)C(=O)N[C@@H](C)C(=O)N[C@@H](CC(=O)O)C(=O)N[C@H](C(=O)N[C@@H](Cc1ccccc1)C(=O)N[C@H](C(N)=O)[C@@H](C)CC)[C@@H](C)CC)C(C)C [Compound 33] (Palmitoyl-DVFRSSE[dK]RRSADIFI-NH2; C-terminus assumed) | 11% | 61% | 107 nM | **** (EC50 101-500 nM and % histamine<35%) | – |
| CCCCCCCCCCCCCCCC(=O)N[C@H](C(=O)N[C@H](C(=O)N[C@@H](CC(=O)O)C(=O)N[C@@H](CCCNC(=N)N)C(=O)N[C@@H](CO)C(=O)N[C@@H](CO)C(=O)N[C@@H](CCC(=O)O)C(=O)N[C@H](CCCCN)C(=O)N[C@@H](CCCNC(=N)N)C(=O)N[C@@H](CCCNC(=N)N)C(=O)N[C@@H](CO)C(=O)N[C@@H](C)C(=O)N[C@@H](CC(=O)O)C(=O)N[C@H](C(=O)N[C@@H](Cc1ccccc1)C(=O)N[C@H](C(N)=O)[C@@H](C)CC)[C@@H](C)CC)C(C)C)[C@@H](C)O [Compound 35] (Palmitoyl-TVDRSSE[dK]RRSADIFI-NH2; C-terminus assumed) | 4% | 70% | 142 nM | **** (EC50 101-500 nM and % histamine<35%) | – |
| CCCCCCCCCCCCCCCC(=O)N[C@H](C(=O)N[C@H](C(=O)N[C@@H](Cc1ccccc1)C(=O)N[C@@H](CCCNC(=N)N)C(=O)N[C@@H](CO)C(=O)N[C@@H](CO)C(=O)N[C@@H](CCC(=O)O)C(=O)N[C@H](CCCCN)C(=O)N[C@@H](CCCNC(=N)N)C(=O)N[C@@H](CCCNC(=N)N)C(=O)N[C@@H](CC(=O)O)C(=O)N[C@@H](C)C(=O)N[C@@H](CC(=O)O)C(=O)N[C@H](C(=O)N[C@@H](Cc1ccccc1)C(=O)N[C@H](C(N)=O)[C@@H](C)CC)[C@@H](C)CC)C(C)C)[C@@H](C)O [Compound 38] (Palmitoyl-TVFRSSE[dK]RRDADIFI-NH2; C-terminus assumed) | 13% | 46% | – | * (EC50>500 nM and % histamine>35%) | 732 nM |
